In the kinase profiling compilation of Christmann-Franck et al. (2016):

Columns and labels:
Assay in all cases: radiometric filter-binding kinase assay, Kinase HotSpot
Conditions in all cases: compound 0.5 µM; ATP 10 µM
DAPK2 (human) = DAPK2 (human) (UniProt Q9UIK4)
CSNK2A1 (human) = CSNK2A1 (human) (UniProt P68400)
MAPK8 (human) = MAPK8 (human) (UniProt P45983)
MAP4K4 (human) = MAP4K4 (human) (UniProt O95819)
BTK (human) = BTK (human) (UniProt Q06187)
MINK1 (human) = MINK1 (human) (UniProt Q8N4C8)
STK25 (human) = STK25 (human) (UniProt O00506)
GSK3A (human) = GSK3A (human) (UniProt P49840)
STK17A (human) = STK17A (human) (UniProt Q9UEE5)
MARK4 (human) = MARK4 (human) (UniProt Q96L34)
NEK3 (human) = NEK3 (human) (UniProt P51956)
[1] = system: MKNK1 (human), Q9BUB5 [T385D; 165-205 del]
HIPK1 (human) = HIPK1 (human) (UniProt Q86Z02)
NEK7 (human) = NEK7 (human) (UniProt Q8TDX7)
MAP3K2 (human) = MAP3K2 (human) (UniProt Q9Y2U5)
PRKCH (human) = PRKCH (human) (UniProt P24723)
[2] = system: MAP2K6 (human), P52564 [S207E/T211E]
ULK2 (human) = ULK2 (human) (UniProt Q8IYT8)
CSNK1G2 (human) = CSNK1G2 (human) (UniProt P78368)
CDK4 CCND1 (human) = CDK4 CCND1 (human) (UniProt P24385+P11802)
PRKACA (human) = PRKACA (human) (UniProt P17612)
TAOK2 (human) = TAOK2 (human) (UniProt Q9UL54)
PRKCB1 (human) = PRKCB1 (human) (UniProt P05771)
NEK6 (human) = NEK6 (human) (UniProt Q9HC98)
NTRK2 (human) = NTRK2 (human) (UniProt Q16620)
LRRK2 (human) = LRRK2 (human) (UniProt Q5S007)
ACVR1 (human) = ACVR1 (human) (UniProt Q04771)
SRPK2 (human) = SRPK2 (human) (UniProt P78362)
ADRBK1 (human) = ADRBK1 (human) (UniProt P25098)
WNK2 (human) = WNK2 (human) (UniProt Q9Y3S1)
ROS1 (human) = ROS1 (human) (UniProt P08922)
MAP4K2 (human) = MAP4K2 (human) (UniProt Q12851)
DYRK1A (human) = DYRK1A (human) (UniProt Q13627)
STK24 (human) = STK24 (human) (UniProt Q9Y6E0)
IRAK4 (human) = IRAK4 (human) (UniProt Q9NWZ3)
SIK2 (human) = SIK2 (human) (UniProt Q9H0K1)
RPS6KB2 (human) = RPS6KB2 (human) (UniProt Q9UBS0)
SRMS (human) = SRMS (human) (UniProt Q9H3Y6)
FGR (human) = FGR (human) (UniProt P09769)
MARK3 (human) = MARK3 (human) (UniProt P27448)
CHEK1 (human) = CHEK1 (human) (UniProt O14757)

Chain of CDK4 CCND1 (human) (P11802 whole entry, looked up): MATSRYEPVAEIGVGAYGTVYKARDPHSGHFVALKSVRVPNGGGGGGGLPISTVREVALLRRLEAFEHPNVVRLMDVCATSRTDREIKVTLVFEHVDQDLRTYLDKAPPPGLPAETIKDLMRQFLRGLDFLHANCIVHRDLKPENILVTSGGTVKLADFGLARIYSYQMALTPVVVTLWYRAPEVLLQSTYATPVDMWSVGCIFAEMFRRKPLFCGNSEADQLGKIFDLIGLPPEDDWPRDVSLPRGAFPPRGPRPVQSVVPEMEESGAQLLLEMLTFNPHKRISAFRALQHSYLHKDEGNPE
Chain of CDK4 CCND1 (human) (P24385 whole entry, looked up): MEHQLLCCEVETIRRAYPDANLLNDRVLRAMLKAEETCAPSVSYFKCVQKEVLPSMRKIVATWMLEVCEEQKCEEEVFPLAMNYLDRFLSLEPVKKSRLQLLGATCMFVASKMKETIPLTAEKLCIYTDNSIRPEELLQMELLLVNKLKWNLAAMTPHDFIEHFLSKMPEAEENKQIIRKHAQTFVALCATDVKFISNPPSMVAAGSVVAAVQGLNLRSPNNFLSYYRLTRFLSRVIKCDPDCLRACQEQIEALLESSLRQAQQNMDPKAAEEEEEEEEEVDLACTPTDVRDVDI
Chain of DAPK2 (human) (Q9UIK4 whole entry, looked up): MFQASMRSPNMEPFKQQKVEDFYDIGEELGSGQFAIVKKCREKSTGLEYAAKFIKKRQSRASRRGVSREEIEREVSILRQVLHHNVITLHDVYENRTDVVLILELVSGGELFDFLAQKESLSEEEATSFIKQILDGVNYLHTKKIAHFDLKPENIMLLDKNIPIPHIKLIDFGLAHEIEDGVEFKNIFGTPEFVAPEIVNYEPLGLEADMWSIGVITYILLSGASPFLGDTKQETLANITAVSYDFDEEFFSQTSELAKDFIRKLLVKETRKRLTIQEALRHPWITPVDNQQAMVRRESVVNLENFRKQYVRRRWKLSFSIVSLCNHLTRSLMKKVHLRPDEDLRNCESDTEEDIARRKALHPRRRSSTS
Chain of RPS6KB2 (human) (Q9UBS0 whole entry, looked up): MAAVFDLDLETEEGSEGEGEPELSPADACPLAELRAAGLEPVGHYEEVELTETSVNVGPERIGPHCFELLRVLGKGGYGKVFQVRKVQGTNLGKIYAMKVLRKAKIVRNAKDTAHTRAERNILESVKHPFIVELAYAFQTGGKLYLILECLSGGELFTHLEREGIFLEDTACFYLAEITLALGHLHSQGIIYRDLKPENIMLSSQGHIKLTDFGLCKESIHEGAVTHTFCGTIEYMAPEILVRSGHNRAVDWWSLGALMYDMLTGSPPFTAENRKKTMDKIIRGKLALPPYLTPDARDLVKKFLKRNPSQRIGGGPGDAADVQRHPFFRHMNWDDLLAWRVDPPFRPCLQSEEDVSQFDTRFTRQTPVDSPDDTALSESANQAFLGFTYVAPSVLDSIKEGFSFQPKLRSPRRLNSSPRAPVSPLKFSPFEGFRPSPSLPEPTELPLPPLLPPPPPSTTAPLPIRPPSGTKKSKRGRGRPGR
Chain of MAP2K6 (human), P52564 [S207E/T211E] (P52564 whole entry S207E/T211E, looked up): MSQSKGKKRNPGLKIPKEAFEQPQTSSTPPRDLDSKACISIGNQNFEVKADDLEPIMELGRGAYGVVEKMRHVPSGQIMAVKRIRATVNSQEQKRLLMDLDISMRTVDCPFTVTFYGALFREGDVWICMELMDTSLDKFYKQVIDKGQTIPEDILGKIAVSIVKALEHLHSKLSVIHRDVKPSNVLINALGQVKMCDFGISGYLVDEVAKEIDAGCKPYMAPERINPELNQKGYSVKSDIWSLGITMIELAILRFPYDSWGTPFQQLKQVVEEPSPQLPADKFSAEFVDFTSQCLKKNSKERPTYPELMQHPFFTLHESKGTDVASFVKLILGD
Chain of MAP4K4 (human) (O95819 whole entry, looked up): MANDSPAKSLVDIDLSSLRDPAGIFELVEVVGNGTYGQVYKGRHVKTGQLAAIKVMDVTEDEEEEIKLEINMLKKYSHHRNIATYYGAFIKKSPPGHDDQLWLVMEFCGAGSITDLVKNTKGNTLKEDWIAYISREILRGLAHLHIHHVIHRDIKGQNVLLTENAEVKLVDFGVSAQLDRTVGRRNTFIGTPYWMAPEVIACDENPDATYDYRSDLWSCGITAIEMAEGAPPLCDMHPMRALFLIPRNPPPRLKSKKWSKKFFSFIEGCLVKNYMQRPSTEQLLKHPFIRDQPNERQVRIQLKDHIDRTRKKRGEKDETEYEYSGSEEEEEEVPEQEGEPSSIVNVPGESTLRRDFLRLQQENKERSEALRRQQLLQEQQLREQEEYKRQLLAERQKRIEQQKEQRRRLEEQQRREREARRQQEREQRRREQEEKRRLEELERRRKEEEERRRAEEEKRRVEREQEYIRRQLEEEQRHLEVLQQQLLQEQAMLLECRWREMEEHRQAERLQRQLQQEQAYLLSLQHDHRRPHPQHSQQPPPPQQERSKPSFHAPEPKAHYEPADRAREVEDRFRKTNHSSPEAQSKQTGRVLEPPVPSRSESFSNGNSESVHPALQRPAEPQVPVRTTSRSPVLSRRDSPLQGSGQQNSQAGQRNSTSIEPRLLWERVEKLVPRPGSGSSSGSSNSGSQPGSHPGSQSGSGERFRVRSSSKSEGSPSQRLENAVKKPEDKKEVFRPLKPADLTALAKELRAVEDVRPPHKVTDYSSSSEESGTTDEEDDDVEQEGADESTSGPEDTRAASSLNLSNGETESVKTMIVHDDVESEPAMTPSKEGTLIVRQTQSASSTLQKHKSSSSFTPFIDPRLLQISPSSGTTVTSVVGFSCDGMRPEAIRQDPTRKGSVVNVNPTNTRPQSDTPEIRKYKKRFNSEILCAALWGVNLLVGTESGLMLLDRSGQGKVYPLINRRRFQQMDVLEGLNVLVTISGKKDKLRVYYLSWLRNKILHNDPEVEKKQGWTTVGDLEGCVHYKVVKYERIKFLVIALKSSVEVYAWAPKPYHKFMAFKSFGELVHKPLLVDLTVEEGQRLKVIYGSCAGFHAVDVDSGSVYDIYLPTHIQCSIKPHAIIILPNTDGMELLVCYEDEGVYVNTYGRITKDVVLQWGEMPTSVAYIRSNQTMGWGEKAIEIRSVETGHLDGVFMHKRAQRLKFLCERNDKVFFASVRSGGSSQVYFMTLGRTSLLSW
Chain of MAP4K2 (human) (Q12851 whole entry, looked up): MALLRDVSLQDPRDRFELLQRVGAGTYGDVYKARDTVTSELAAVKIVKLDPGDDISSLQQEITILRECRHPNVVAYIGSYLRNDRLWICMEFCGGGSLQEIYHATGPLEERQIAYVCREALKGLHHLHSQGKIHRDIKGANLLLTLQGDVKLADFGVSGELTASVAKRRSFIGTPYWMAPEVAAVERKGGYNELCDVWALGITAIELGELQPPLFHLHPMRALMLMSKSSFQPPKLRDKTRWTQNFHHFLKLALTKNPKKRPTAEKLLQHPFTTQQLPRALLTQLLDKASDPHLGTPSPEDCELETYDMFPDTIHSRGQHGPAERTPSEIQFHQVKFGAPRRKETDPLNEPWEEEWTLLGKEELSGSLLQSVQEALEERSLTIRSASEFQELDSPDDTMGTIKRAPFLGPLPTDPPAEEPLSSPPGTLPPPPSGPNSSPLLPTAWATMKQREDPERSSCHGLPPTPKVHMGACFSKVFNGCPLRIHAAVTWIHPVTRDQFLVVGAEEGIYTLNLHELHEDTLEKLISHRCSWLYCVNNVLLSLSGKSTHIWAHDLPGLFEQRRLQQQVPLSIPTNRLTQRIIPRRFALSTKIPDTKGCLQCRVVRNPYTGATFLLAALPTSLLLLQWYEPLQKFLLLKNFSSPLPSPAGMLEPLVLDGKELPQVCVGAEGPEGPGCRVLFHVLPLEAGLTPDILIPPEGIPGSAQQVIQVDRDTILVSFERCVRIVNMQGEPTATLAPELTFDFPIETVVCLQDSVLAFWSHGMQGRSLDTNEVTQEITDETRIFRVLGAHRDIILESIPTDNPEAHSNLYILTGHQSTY
Chain of MAPK8 (human) (P45983 whole entry, looked up): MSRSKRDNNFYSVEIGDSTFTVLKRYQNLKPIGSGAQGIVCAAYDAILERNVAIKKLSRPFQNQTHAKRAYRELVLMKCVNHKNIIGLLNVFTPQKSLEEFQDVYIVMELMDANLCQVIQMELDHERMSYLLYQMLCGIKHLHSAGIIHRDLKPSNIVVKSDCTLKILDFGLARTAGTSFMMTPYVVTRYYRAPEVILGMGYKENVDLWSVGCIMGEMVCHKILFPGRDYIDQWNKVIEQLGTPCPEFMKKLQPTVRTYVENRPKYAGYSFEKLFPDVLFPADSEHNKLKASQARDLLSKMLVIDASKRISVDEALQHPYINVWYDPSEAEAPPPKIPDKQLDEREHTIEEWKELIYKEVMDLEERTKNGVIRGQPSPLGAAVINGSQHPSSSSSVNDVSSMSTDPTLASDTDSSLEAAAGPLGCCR
Chain of NEK3 (human) (P51956 whole entry, looked up): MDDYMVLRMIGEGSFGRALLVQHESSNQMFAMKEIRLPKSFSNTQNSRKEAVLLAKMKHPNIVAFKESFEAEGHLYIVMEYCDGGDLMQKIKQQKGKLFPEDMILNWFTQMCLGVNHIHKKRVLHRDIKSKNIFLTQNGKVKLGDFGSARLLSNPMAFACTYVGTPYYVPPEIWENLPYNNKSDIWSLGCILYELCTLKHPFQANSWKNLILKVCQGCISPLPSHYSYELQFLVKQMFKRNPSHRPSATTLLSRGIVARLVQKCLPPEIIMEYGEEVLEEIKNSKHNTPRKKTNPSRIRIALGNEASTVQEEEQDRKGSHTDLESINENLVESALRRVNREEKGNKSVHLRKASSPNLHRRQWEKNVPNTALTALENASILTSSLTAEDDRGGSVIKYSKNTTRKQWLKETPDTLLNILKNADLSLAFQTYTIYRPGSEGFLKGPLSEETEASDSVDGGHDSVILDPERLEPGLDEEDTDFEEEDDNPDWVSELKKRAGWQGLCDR

Work on `O=C(c1cc2cc(O)ccc2[nH]1)c1cc2cc(O)ccc2[nH]1` yielded a residual activity (DAPK2 (human)) of 101%, a residual activity (CSNK2A1 (human)) of 88.7% and a residual activity (MAPK8 (human)) of 112%. It also gave a residual activity (MAP4K4 (human)) of 6.63%, a residual activity (BTK (human)) of 86.8% and a residual activity (MINK1 (human)) of 9.87%. It also gave a residual activity (STK25 (human)) of 105%, a residual activity (GSK3A (human)) of 75.7% and a residual activity (STK17A (human)) of 51.7%. The residual activity (MARK4 (human)) was 55.3%, the residual activity (NEK3 (human)) was 111% and the residual activity [1] was 83.6%. It also gave a residual activity (HIPK1 (human)) of 94.3%, a residual activity (NEK7 (human)) of 101% and a residual activity (MAP3K2 (human)) of 102%. For the same compound, the residual activity (PRKCH (human)) was 76.3%, the residual activity [2] was 93.6% and the residual activity (ULK2 (human)) was 94.5%. It also gave a residual activity (CSNK1G2 (human)) of 93.8%, a residual activity (CDK4 CCND1 (human)) of 91.5% and a residual activity (PRKACA (human)) of 107%. The residual activity (TAOK2 (human)) was 99%, the residual activity (PRKCB1 (human)) was 90.4% and the residual activity (NEK6 (human)) was 99.6%. The residual activity (NTRK2 (human)) was 37%, the residual activity (LRRK2 (human)) was 87.2% and the residual activity (ACVR1 (human)) was 123%. For the same compound, the residual activity (SRPK2 (human)) was 97.1%, the residual activity (ADRBK1 (human)) was 98.2% and the residual activity (WNK2 (human)) was 96.6%. For the same compound, the residual activity (ROS1 (human)) was 105%, the residual activity (MAP4K2 (human)) was 67.1% and the residual activity (DYRK1A (human)) was 103%. It also gave a residual activity (STK24 (human)) of 70.4%, a residual activity (IRAK4 (human)) of 85.9% and a residual activity (SIK2 (human)) of 78.3%. It also gave a residual activity (RPS6KB2 (human)) of 102%, a residual activity (SRMS (human)) of 93.7% and a residual activity (FGR (human)) of 12.7%. It also gave a residual activity (MARK3 (human)) of 84.4% and a residual activity (CHEK1 (human)) of 82.5%.

Compound `CN(C)S(=O)(=O)c1ccc2c(c1)/C(=C/c1cc3c([nH]1)CCCC3)C(=O)N2` has a residual activity (DAPK2 (human)) of 93.5%, a residual activity (CSNK2A1 (human)) of 105% and a residual activity (MAPK8 (human)) of 91.1%. The residual activity (MAP4K4 (human)) was 46.1%, the residual activity (BTK (human)) was 97.4% and the residual activity (MINK1 (human)) was 83.8%. The residual activity (STK25 (human)) was 79.6%, the residual activity (GSK3A (human)) was 99.4% and the residual activity (MARK4 (human)) was 51.5%. It also gave a residual activity (NEK3 (human)) of 98.2%, a residual activity [1] of 108% and a residual activity (NEK7 (human)) of 103%. It also gave a residual activity (MAP3K2 (human)) of 37%, a residual activity (PRKCH (human)) of 78.5% and a residual activity [2] of 94.6%. It also gave a residual activity (ULK2 (human)) of 26.3%, a residual activity (CSNK1G2 (human)) of 93.8% and a residual activity (CDK4 CCND1 (human)) of 107%. It also gave a residual activity (PRKACA (human)) of 106%, a residual activity (TAOK2 (human)) of 89.6% and a residual activity (PRKCB1 (human)) of 106%. It also gave a residual activity (NEK6 (human)) of 90.7%, a residual activity (NTRK2 (human)) of 15.6% and a residual activity (LRRK2 (human)) of 1.78%. The residual activity (ACVR1 (human)) was 98.6%, the residual activity (SRPK2 (human)) was 50.3% and the residual activity (ADRBK1 (human)) was 95%. It also gave a residual activity (WNK2 (human)) of 101%, a residual activity (ROS1 (human)) of 83.3% and a residual activity (MAP4K2 (human)) of 20.8%. For the same compound, the residual activity (DYRK1A (human)) was 81.1%, the residual activity (STK24 (human)) was 47.7% and the residual activity (IRAK4 (human)) was 57.7%. It also gave a residual activity (SIK2 (human)) of 86.4%, a residual activity (RPS6KB2 (human)) of 92.6% and a residual activity (SRMS (human)) of 104%. It also gave a residual activity (FGR (human)) of 18.2%, a residual activity (MARK3 (human)) of 68.9% and a residual activity (CHEK1 (human)) of 76.3%.
